Source: paper PMC8232266, “Lanolin-Based Synthetic Membranes for Transdermal Permeation and Penetration Drug Delivery Assays” (Membranes, 2021)
“Also recorded” adds a separate entry of the source. Where two headings read alike, the source gives them in different places. Marks after values point to notes of the source that are not given here.

Tests used:
[1] = Infinite-dose kinetic permeation assay, vertical Franz diffusion cells, 5% WEL lanolin membrane; format: in vitro ADME; conditions: DS 3% / LIDO 2% in PG; for J (flux): Ord 0 model
Procedure: (§1) For the preparation of the membranes, the procedure described by Pullmannová, et al. was followed. […] Next, 300 µL of the lipid solution was spread onto the pre-weighed NP membranes (≈15 mg lanolin) in a three-step process. The solvent was then evaporated under a stream of N2. The lipid membranes prepared were vacuum-dried over […] in a desiccator and were stored in a fridge at 5 °C for 24 h. Prior to use, the lanolin-based membranes were then heated to 75 °C, equilibrated for 10 min, and then cooled down slowly (~3 h) to 32 °C. The last part of the cooling-heating cycle was incubation for 24 h at 32 °C. Using a skin pHmeter (Sebumeter pH 900, Courage + Khazaka, Cologne, Germany), the pH of the membranes was determined.
(§2) Lastly, the entire system was clamped shut.

[2] = Infinite-dose kinetic permeation assay, vertical Franz diffusion cells, Nuclepore membrane; format: in vitro ADME; conditions: NP, DS 3% / LIDO 2% in PG; for J (flux): Higuchi model
Description: as §2

[3] = Infinite-dose kinetic permeation assay, vertical Franz diffusion cells, 5% SEL lanolin membrane; format: in vitro ADME
Procedure: as §1, §2

[4] = infinite dose
[5] = Finite-dose penetration test, Franz diffusion cells, Nuclepore-SEL membrane; format: in vitro ADME; conditions: finite dose 20 µL, 24 h, Figure 1

Structure (SMILES) | J (flux) [1] | Kinetics of Release (best-fit model) [2] | J (flux) [2] | J (flux) ([3]; Higuchi model, LIDO 2% in PG) | Kinetics of Release (best-fit model) ([1]; listed as DS) | Kinetics of Release (best-fit model) ([4]; SKIN, DS 3% / LIDO 2% in PG) | J (flux) ([4]; SKIN, Ord 0 model, DS 3% / LIDO 2% in PG) | permeability (percentage permeated through the skin) ([4]; pig skin, at 30 h) | permeation through Nuclepore-SEL membrane compared with skin [5] | Kinetics of Release (best-fit model) ([3]; DS 3% / LIDO 2% in PG) | J (flux) ([3]; Ord 0 model, DS 3% in PG)
CCN(CC)CC(=O)Nc1c(C)cccc1C [Lidocaine, lidocaine] | 4.85 µg/cm^2/h | Higuchi | 1360.27 * µg/cm^2/h^½ | 343.05 * µg/cm^2/h^½ |  |  |  |  |  |  | 
O=C(O)Cc1ccccc1Nc1c(Cl)cccc1Cl [Diclofenac Sodium, Diclofenac sodium] | 6.18 µg/cm^2/h | Higuchi | 2307.12 * µg/cm^2/h^½ |  | zero-order kinetics; also recorded: Ord 0 | Ord 0 | 3.94 µg/cm^2/h | 0.83 ± 0.42% | insignificant difference compared with the skin | Ord 0 | 30.40 * µg/cm^2/h
